In paper PMC11945486, “TAS1R2/TAS1R3 Single-Nucleotide Polymorphisms Affect Sweet Taste Receptor Activation by Sweeteners: The SWEET Project” (Nutrients, 2025):
No end group written: not given here.

Biological target: T1, human TAS1R2-R317G/TAS1R3-WT (Homo sapiens, UniProt Q7RTX0+Q8TE23, R317G)
T1 construct: expressed in transfected cells; host or cells: HEK293T-Gα16gust44
T1 sequence (Q8TE23 20-839 R317G): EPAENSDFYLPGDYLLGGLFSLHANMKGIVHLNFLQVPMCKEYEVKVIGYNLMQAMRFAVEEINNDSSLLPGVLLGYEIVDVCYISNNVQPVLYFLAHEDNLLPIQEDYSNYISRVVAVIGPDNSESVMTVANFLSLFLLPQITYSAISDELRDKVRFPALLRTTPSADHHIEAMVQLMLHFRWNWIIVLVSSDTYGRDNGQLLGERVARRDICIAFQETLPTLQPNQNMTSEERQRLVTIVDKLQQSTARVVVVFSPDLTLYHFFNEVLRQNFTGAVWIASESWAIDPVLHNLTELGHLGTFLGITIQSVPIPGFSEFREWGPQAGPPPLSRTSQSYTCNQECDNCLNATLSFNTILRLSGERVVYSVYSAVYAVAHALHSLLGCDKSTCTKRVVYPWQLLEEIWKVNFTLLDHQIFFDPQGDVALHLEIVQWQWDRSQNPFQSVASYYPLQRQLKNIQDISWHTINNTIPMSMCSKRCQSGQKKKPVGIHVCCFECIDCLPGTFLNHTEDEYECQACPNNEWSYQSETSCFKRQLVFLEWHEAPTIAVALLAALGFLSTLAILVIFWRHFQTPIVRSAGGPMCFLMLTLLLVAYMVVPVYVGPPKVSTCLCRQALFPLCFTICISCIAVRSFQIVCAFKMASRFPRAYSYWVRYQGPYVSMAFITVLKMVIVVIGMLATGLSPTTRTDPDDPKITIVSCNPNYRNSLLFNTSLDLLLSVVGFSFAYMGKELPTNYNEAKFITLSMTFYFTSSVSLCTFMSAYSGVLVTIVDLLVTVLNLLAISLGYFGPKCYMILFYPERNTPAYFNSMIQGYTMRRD
T1 sequence (Q7RTX0 21-852): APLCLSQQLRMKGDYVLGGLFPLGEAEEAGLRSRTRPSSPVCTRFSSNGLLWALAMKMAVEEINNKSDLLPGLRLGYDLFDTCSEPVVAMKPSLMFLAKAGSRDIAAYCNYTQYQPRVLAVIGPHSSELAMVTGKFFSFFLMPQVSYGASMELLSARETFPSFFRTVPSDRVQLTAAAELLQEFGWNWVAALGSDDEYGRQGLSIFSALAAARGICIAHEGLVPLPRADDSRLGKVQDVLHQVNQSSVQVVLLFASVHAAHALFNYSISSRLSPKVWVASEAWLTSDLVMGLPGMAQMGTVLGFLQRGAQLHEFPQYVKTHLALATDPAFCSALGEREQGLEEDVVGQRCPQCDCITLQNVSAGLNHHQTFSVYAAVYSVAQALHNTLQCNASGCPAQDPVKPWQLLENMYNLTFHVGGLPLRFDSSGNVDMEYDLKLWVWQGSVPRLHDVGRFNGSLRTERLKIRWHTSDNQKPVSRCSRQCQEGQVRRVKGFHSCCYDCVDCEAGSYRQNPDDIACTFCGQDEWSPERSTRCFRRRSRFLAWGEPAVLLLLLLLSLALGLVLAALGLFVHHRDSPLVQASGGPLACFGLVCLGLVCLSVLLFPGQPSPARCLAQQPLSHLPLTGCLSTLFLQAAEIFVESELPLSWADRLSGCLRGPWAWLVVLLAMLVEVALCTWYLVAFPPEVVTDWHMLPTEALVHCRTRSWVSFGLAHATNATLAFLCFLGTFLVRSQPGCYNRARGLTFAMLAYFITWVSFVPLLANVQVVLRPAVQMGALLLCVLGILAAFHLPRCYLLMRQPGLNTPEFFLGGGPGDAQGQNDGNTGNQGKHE
Assay: Calcium mobilisation assay, TAS1R2 variant R317G with TAS1R3-WT
Type: cell-based
Settings: for Max ΔF/F0: maximal signal amplitude
Source text: The coding sequences for TAS1R2 and TAS1R3 were commercially synthesised, and the human codon was optimised for expression in human cells. The coding sequences of human TAS1R2 and TAS1R3 were subcloned and inserted into the mammalian expression vectors pcDNA6/myc-HisA and pcDNA4/myc-HisA (Invitrogen; Thermo Fisher Scientific; Illkirch, France) between the EcoRI and NotI restriction sites, generating the plasmids pcDNA6-TAS1R2 and pcDNA4-TAS1R3, respectively. To increase protein expression in mammalian cells, an upstream start codon was used, which was a sequence called MAX, corresponding to the QBI SP163 element also described in pcDNA4-HisMax (Invitrogen; Thermo Fisher Scientific; Illkirch, France). To measure the expression level of the receptor by immunohistochemistry, we used the FLAG sequence ([…]) in the C-terminal position, which encodes the FLAG tag epitope. SNP variants of TAS1R2 and TAS1R3 were constructed based on […], respectively, using site-directed mutagenesis (Genewiz; Leipzig, Germany).
The HEK293T cells were kindly provided by Jay P. Slack (Givaudan Flavors Corporation; Cincinnati, OH, USA). HEK293T cells stably transfected with Gα16gust44 [43, 67] were seeded in poly-D-lysine-coated clear-bottom black 96-well plates (0.35 × 10^5 cells/well) in high-glucose DMEM supplemented with 2 mM GlutaMAX, 10% dialysed foetal bovine serum with penicillin/streptomycin and G418 (400 μg/mL) at 37 °C and 6.3% CO2 in a humidified atmosphere as previously reported. […] As a negative control, HEK293T cells were mock-transfected with the empty expression vector. After a further 24 h of incubation, the HEK293T cells were washed with C1 buffer (130 mM NaCl, 5 mM KCl, 10 mM HEPES pH 7.4 and 2 mM CaCl2). The 96-well plates containing the cells were then stimulated with sweet-tasting compounds. […] Different concentration ranges were tested depending on the sweet compound injected. The Ca^2+ changes were expressed as fractional changes in fluorescent light intensity: ΔF/F = (F − F0)/F0, where F was the fluorescent light intensity at each point, and F0 was the value of emitted fluorescent light prior to stimulus application. To calculate dose–response relationships, the changes in fluorescence upon stimulus application were averaged, mock-subtracted and baseline-corrected. The dose–response data obtained were adjusted using a 4-parameter logistic equation. The half-maximal effective concentrations (EC50 values) and maximal signal amplitudes were calculated using SigmaPlot software (version 15.0) (Systat Software; San Jose, CA, USA).
For in vitro calcium mobilisation assay performed on hTAS1R2-SNPs, hTAS1R3-SNPs and mTAS1R3-I60T, 6 to 7 concentrations were tested for each sweet compound, plus buffer alone. All concentration–receptor combinations were measured in duplicate, and each experiment was repeated at least 4 times (8 wells/concentration). Results were expressed for each concentration as ΔF/F mean ± SEM and represented as dose–response curves.

OC[C@H]1O[C@H](O[C@]2(CCl)O[C@H](CCl)[C@@H](O)[C@@H]2O)[C@H](O)[C@@H](O)[C@H]1Cl [Sucralose]
EC50: 62 ± 11 µM | R1 = Variant EC50/WT EC50: 0.7 | Max ΔF/F0: 0.80 ± 0.05

O=S(=O)(O)NC1CCCCC1 [Cyclamate, cyclamate]
EC50: 2160 ± 44 µM

C=C(C)[C@@H]1CC=C(/C=N/O)CC1 [Perillartine, perillartine]
EC50: 20.7 ± 0.6 µM | R1 = Variant EC50/WT EC50: 1.2 | Max ΔF/F0: 1.53 ± 0.03

C=C1C[C@@]23CC[C@H]4[C@@](C)(CCC[C@@]4(C)C(=O)O[C@@H]4O[C@H](CO)[C@@H](O)[C@H](O[C@@H]5O[C@H](CO)[C@@H](O)[C@H](O)[C@H]5O)[C@H]4O[C@@H]4O[C@H](CO)[C@@H](O)[C@H](O)[C@H]4O)[C@@H]2CC[C@]1(O[C@@H]1O[C@H](CO)[C@@H](O)[C@H](O[C@@H]2O[C@H](CO)[C@@H](O)[C@H](O)[C@H]2O)[C@H]1O[C@@H]1O[C@H](CO)[C@@H](O)[C@H](O)[C@H]1O)C3 [Rebaudioside M, rebaudioside M]
EC50: 20.4 ± 0.4 µM | R1 = Variant EC50/WT EC50: 1.2 | Max ΔF/F0: 1.23 ± 0.01

COc1ccc(CCC(=O)c2c(O)cc(O[C@@H]3O[C@H](CO)[C@@H](O)[C@H](O)[C@H]3O[C@@H]3O[C@@H](C)[C@H](O)[C@@H](O)[C@H]3O)cc2O)cc1O [NHDC, neohesperidin dihydrochalcone]
EC50: 97.1 ± 5 µM | R1 = Variant EC50/WT EC50: 1.3 | Max ΔF/F0: 0.85 ± 0.02

thaumatin
R1 = Variant EC50/WT EC50: 1.4 | Max ΔF/F0: 1.16 ± 0.02

CC1=CC(=O)NS(=O)(=O)O1 [Acesulfame K, acesulfame K]
EC50: 465 ± 55 µM | R1 = Variant EC50/WT EC50: 0.7 | Max ΔF/F0: 0.46 ± 0.02

brazzein (QDKCKKVYENYPVSKCQLANQCNYDCKLDKHARSGECFYDEKRNLQCICDYCEY; ends and bridges not checked; cysteine pairing not given here; UniProt P56552 1-54, looked up) [sweet-tasting protein obtained by recombinant production using the yeast Pichia pastoris]
R1 = Variant EC50/WT EC50: 1.3 | Max ΔF/F0: 1.18 ± 0.03

C[C@H](CC[C@@H](O[C@@H]1O[C@H](CO[C@@H]2O[C@H](CO)[C@@H](O)[C@H](O)[C@H]2O)[C@@H](O)[C@H](O)[C@H]1O[C@@H]1O[C@H](CO)[C@@H](O)[C@H](O)[C@H]1O)C(C)(C)O)[C@H]1CC[C@@]2(C)[C@@H]3CC=C4[C@@H](CC[C@H](O[C@@H]5O[C@H](CO[C@@H]6O[C@H](CO)[C@@H](O)[C@H](O)[C@H]6O)[C@@H](O)[C@H](O)[C@H]5O)C4(C)C)[C@]3(C)[C@H](O)C[C@]12C [Mogroside V, mogroside V]
EC50: 18.4 ± 1 µM | R1 = Variant EC50/WT EC50: 1.1 | Max ΔF/F0: 1.34 ± 0.03

COC(=O)[C@H](Cc1ccccc1)NC(=O)[C@H](CC(=O)O)NCCC(C)(C)C [Neotame]
EC50: 0.73 ± 0.13 µM | R1 = Variant EC50/WT EC50: 0.9 | Max ΔF/F0: 0.56 ± 0.03

B1: thaumatin (protein)
chain: ATFEIVNRCSYTVWAAASKGDAALDAGGRQLNSGESWTINVEPGTKGGKIWARTDCYFDDSGSGICKTGDCGGLLRCKRFGRPPTTLAEFSLNQYGKDYIDISNIKGFNVPMDFSPTTRGCRGVRCAADIVGQCPAKLKAPGGGCNDACTVFQTSEYCCTTGKCGPTEYSRFFKRLCPDAFSYVLDKPTTVTCPGSSNYRVTFCPTA
modifications: Eight disulfides
notes: sweet-tasting plant protein, E957
EC50: 10.9 ± 0.3 µM
